pIC50: −log10 of the molar value.
molecular target: HIV-1 RT wild-type enzyme (Human immunodeficiency virus type 1 group M subtype B (isolate HXB2) (HIV-1), UniProt P04585); experiment: HIV-1 reverse transcriptase inhibitory activity (RT polymerase assay); format: biochemical; conditions: HIV-1 RT wild-type enzyme 83 pM; RNA-dependent DNA polymerase activity; read-out: IC50
Experimental: Determination of HIV-1 Reverse Transcriptase Inhibitory Activity
The heterodimeric nucleic acid substrate used in the HIV-1 RT polymerase reactions was generated by annealing the DNA primer, biotinylated pD500 (Sigma Aldrich, USA, 5′-biotin-ttg aaa tga ctg cgg tac ggc-3′), SEQ ID NO. 1 to the nucleotide RNA template t500 (derived from hepatitis C virus [HCV] sequence, IBA, Germany, 5′-[…]-3′), SEQ ID NO 2). […] The mixture was then preincubated on an orbital shaker for 30 min at room temperature in microtiter plates (Costar 3365, Corning, USA). A polymerization reaction was initiated by the addition of RNA template/pD500 DNA primer hybrid (16.6 nM final of RNA/DNA hybrid) and dNTPs (2 μM dATP, dGTP, dCTP and 66.6 nM Ru-dUTP (Meso Scale Discovery, USA)). Plate was sealed and incubated for 5-10 min at room temperature on an orbital shaker. Plate was then incubated for 90 min at 37° C. and reactions quenched with 60 μl quenching buffer (50 mM EDTA, 0.7% BSA, 0.7% Tween-20, 0.017% sodium azide in PBS). The resulting solution was incubated at room temperature for an additional 5 min and then 50 μL was transferred to pre-blocked Avidin plates (L15AA, Meso Scale Discovery). Each well of Avidin plate was blocked for 1 h at room temperature with 100 μL 5% BSA in PBS. Blocking solution was removed by tapping vigorously on filter paper to remove all excess liquid. Reaction on pre-blocked avidin plate proceeded for 60 min at room temperature and then contents removed by tapping vigorously on filter paper to remove all excess liquid. After washing plate 3 times with 150 μL 1×PBS and blotting dry between cycles, 150 μL 1× Read Buffer T (4× Read Buffer T, Meso Scale Discovery) was added and incubated for 5 min at room temperature before counting on a Sector Imager […] (Meso Scale Discovery). Titration curves and IC50 values were calculated using a four parameter logisitc fit according to standard procedures. Briefly, % Inhibition=100×((sample raw value)−(mean value of the low control or 0% inhibition))/((mean value of wells representing 100% inhbition)−(mean value of 0% inhbition)). In this assay, low control wells contain DMSO (0% inhbition) and 100% inhibition wells contain 1 μM efavirenz.

Row | Structure (SMILES) | pIC50
1 | N#Cc1cc(Cl)cc(Oc2c(C(F)(F)F)ncn(Cc3cnc(O)cn3)c2=O)c1 [Example 2, 3-chloro-5-((1-((5-hydroxypyrazin-2-yl)methyl)-6-oxo-4-(trifluoromethyl)-1,6-dihydropyrimidin-5-yl)oxy)benzonitrile] | 6.93
2 | N#Cc1cc(Cl)cc(Oc2c(C(F)(F)F)ncn(Cc3cc(-c4cncc(F)c4)c(=O)[nH]n3)c2=O)c1 [Example 82, 3-chloro-5-((1-((5-(5-fluoropyridin-3-yl)-6-oxo-1,6-dihydropyridazin-3-yl)methyl)-6-oxo-4-(trifluoromethyl)-1,6-dihydropyrimidin-5-yl)oxy)benzonitrile] | 8.15
3 | N#Cc1cc(Cl)cc(Oc2c(C(F)(F)F)ncn(Cc3cnc(-c4ccnc5[nH]ccc45)[nH]c3=O)c2=O)c1 [Example 158, 3-chloro-5-((6-oxo-1-((6-oxo-2-(1H-pyrrolo[2,3-b]pyridin-4-yl)-1,6-dihydropyrimidin-5-yl)methyl)-4-(trifluoromethyl)-1,6-dihydropyrimidin-5-yl)oxy)benzonitrile] | 7.96
4 | N#Cc1cc(Cl)cc(Oc2c(C(F)(F)F)ncn(Cc3cc(-c4ccc(F)cn4)c(=O)[nH]n3)c2=O)c1 [Example 98, 3-chloro-5-((1-((5-(5-fluoropyridin-2-yl)-6-oxo-1,6-dihydropyridazin-3-yl)methyl)-6-oxo-4-(trifluoromethyl)-1,6-dihydropyrimidin-5-yl)oxy)benzonitrile] | 8.05
5 | CS(=O)(=O)c1cc(Cn2cnc(C(F)(F)F)c(Oc3cc(Cl)cc(C#N)c3)c2=O)n[nH]c1=O [Example 96, 3-chloro-5-((1-((5-(methylsulfonyl)-6-oxo-1,6-dihydropyridazin-3-yl)methyl)-6-oxo-4-(trifluoromethyl)-1,6-dihydropyrimidin-5-yl)oxy)benzonitrile] | 6.47
6 | Cn1nccc1-c1cc(Cn2cnc(C(F)(F)F)c(Oc3cc(Cl)cc(C#N)c3)c2=O)c(=O)[nH]n1 [Example 114, 3-chloro-5-((1-((6-(1-methyl-1H-pyrazol-5-yl)-3-oxo-2,3-dihydropyridazin-4-yl)methyl)-6-oxo-4-(trifluoromethyl)-1,6-dihydropyrimidin-5-yl)oxy)benzonitrile] | 8.15
7 | Cc1ncn(Cc2cc(C(F)F)n[nH]c2=O)c(=O)c1Oc1cc(Cl)cc(C#N)c1 [Example 176, 3-chloro-5-((1-((6-(difluoromethyl)-3-oxo-2,3-dihydropyridazin-4-yl)methyl)-4-methyl-6-oxo-1,6-dihydropyrimidin-5-yl)oxy)benzonitrile] | 8.22
8 | COc1cc(Cn2cnc(C(F)(F)F)c(Oc3cc(Cl)cc(C#N)c3)c2=O)n[nH]c1=O [Example 106, 3-chloro-5-((1-((5-methoxy-6-oxo-1,6-dihydropyridazin-3-yl)methyl)-6-oxo-4-(trifluoromethyl)-1,6-dihydropyrimidin-5-yl)oxy)benzonitrile] | 7.92
9 | N#Cc1cc(Cl)cc(Oc2c(C(F)(F)F)ncn(Cc3cc(C(O)C4CC4)c(=O)[nH]n3)c2=O)c1 (centres unmarked) [Example 17, 3-chloro-5-((1-((5-(cyclopropyl(hydroxy)methyl)-6-oxo-1,6-dihydropyridazin-3-yl)methyl)-6-oxo-4-(trifluoromethyl)-1,6-dihydropyrimidin-5-yl)oxy)benzonitrile] | 6.75
10 | N#Cc1cc(Cl)cc(Oc2c(C(F)(F)F)ncn(Cc3cnc(C#N)[nH]c3=O)c2=O)c1 [Example 155, 5-((5-(3-chloro-5-cyanophenoxy)-6-oxo-4-(trifluoromethyl)pyrimidin-1(6H)-yl)methyl)-6-oxo-1,6-dihydropyrimidine-2-carbonitrile] | 7.03
11 | N#Cc1cc(F)cc(Oc2c(C(F)(F)F)ncn(Cc3ccc(=O)[nH]n3)c2=O)c1 [Example 19, 3-fluoro-5-((6-oxo-1-((6-oxo-1,6-dihydropyridazin-3-yl)methyl)-4-(trifluoromethyl)-1,6-dihydropyrimidin-5-yl)oxy)benzonitrile] | 7.51
